Assay results reported in ChEMBL document CHEMBL1136350, “Design and synthesis of orally active inhibitors of TNF synthesis as anti-rheumatoid arthritis drugs” (Bioorg Med Chem Lett, 2003).

What was measured:
[1] = tested on: MONO-MAC-6; assay: Inhibitory activity against monomac6 (MM6) human monocytic cell line; type: functional, cell-based
[2] = Area under curve was determined in rat after oral administration at a concentration 30 mg/kg; type: ADME, organism-based; set-up: dose 30 mg/kg, route oral; settings: in vivo
[3] = Cmax in rat plasma after 30mg/kg oral dose; type: ADME, organism-based; set-up: dose 30 mg/kg, route oral
[4] = Cmax in dog plasma after 30mg/kg oral dose; type: ADME, organism-based, Canis lupus familiaris; set-up: dose 30 mg/kg, route oral
[5] = tested on: Rattus norvegicus; assay: Area under curve was determined in rat after oral administration at a concentration 30 mg/kg; NA= Not active; type: ADME, organism-based; set-up: dose 30 mg/kg, route oral; settings: in vivo
[6] = tested on: Mus musculus; assay: Inhibition of murine collagen -induced arthritis(MCIA) in mice after peroral administration at a concentration 15 mg/kg; type: functional; settings: route oral
[7] = tested on: Mus musculus; assay: Inhibition of murine collagen -induced arthritis(MCIA) in mice after peroral administration at a concentration 2 mg/kg; type: functional; settings: route oral
[8] = tested on: Mus musculus; assay: Number of positive paws that was inflamed by murine collagen -induced arthritis(MCIA) in mice after peroral administration 13 day at a concentration 2 mg/kg; type: functional; settings: route oral
[9] = tested on: Mus musculus; assay: Number of paws at risk inflamed by murine collagen -induced arthritis(MCIA) in mice after peroral administration at a concentration 120 mg/kg; type: functional; settings: route oral
[10] = tested on: Mus musculus; assay: Number of paws at risk inflamed by murine collagen -induced arthritis(MCIA) in mice after peroral administration at a concentration 15 mg/kg; type: functional; settings: route oral
[11] = tested on: Mus musculus; assay: Number of positive paws that was inflamed by murine collagen -induced arthritis(MCIA) in mice after peroral administration 13 day at a concentration 5 mg/kg; type: functional; settings: route oral
[12] = tested on: Mus musculus; assay: Reduction of murine collagen -induced arthritis(MCIA) in mice after peroral administration at a concentration 5 mg/kg; type: functional; settings: route oral
[13] = tested on: Mus musculus; assay: Number of positive paws that was inflamed by murine collagen -induced arthritis(MCIA) in mice after peroral administration 13 day at a concentration 15 mg/kg; type: functional; settings: route oral
[14] = tested on: Mus musculus; assay: Number of paws at risk inflamed by murine collagen -induced arthritis(MCIA) in mice after peroral administration at a concentration 2 mg/kg; type: functional; settings: route oral
[15] = tested on: Mus musculus; assay: Reduction of murine collagen -induced arthritis(MCIA) in mice after peroral administration at a concentration 45 mg/kg; type: functional; settings: route oral
[16] = tested on: Mus musculus; assay: Inhibition of murine collagen -induced arthritis(MCIA) in mice after peroral administration at a concentration 5 mg/kg; type: functional; settings: route oral
[17] = Plasma concentration in rats after 7 hr at 30mg/kg oral dose; type: ADME, organism-based; settings: rat, read-out: Conc_plasma
[18] = tested on: Mus musculus; assay: Number of positive paws that was inflamed by murine collagen -induced arthritis(MCIA) in mice after peroral administration 13 day at a concentration 45 mg/kg; type: functional; settings: route oral
[19] = tested on: Mus musculus; assay: Inhibition of murine collagen -induced arthritis(MCIA) in mice after peroral administration at a concentration 45 mg/kg; type: functional; settings: route oral
[20] = tested on: Mus musculus; assay: Number of positive paws that was inflamed by murine collagen -induced arthritis(MCIA) in mice after peroral administration 13 day at a concentration 120 mg/kg; type: functional; settings: route oral
[21] = tested on: Mus musculus; assay: Number of paws at risk inflamed by murine collagen -induced arthritis(MCIA) in mice after peroral administration at a concentration 5 mg/kg; type: functional; settings: route oral
[22] = tested on: Mus musculus; assay: Reduction of murine collagen -induced arthritis(MCIA) in mice after peroral administration at a concentration 15 mg/kg; type: functional; settings: route oral
[23] = tested on: Mus musculus; assay: Number of paws at risk inflamed by murine collagen -induced arthritis(MCIA) in mice after peroral administration at a concentration 45 mg/kg; type: functional; settings: route oral
[24] = tested on: Mus musculus; assay: Inhibition of murine collagen -induced arthritis(MCIA) in mice after peroral administration at a concentration 120 mg/kg; type: functional; settings: route oral
[25] = Plasma concentration in dogs after 2 hr at 30mg/kg oral dose; type: ADME, organism-based, Canis lupus familiaris; settings: dog, read-out: Conc_plasma
[26] = tested on: Mus musculus; assay: Reduction of murine collagen -induced arthritis(MCIA) in mice after peroral administration at a concentration 2 mg/kg; type: functional; settings: route oral
[27] = tested on: Mus musculus; assay: Reduction of murine collagen -induced arthritis(MCIA) in mice after peroral administration at a concentration 120 mg/kg; type: functional; settings: route oral

Structure (SMILES): O=C(NO)[C@H]1CN(CC(F)(F)F)CCN1S(=O)(=O)N1CC=C(c2ccc(F)cc2)CC1
- IC50 ([1]; Homo sapiens, MONO-MAC-6): 300 nM
- AUC [2]: 3260 ng·h/mL

Structure (SMILES): COc1cccc(C2=CCN(S(=O)(=O)N3CCCC[C@@H]3C(=O)NO)CC2)c1
- IC50 ([1]; Homo sapiens, MONO-MAC-6): 260 nM

Structure (SMILES): O=C(NO)[C@H]1CCCCN1S(=O)(=O)N1CC=C(c2ccc(F)c(F)c2)CC1
- IC50 ([1]; Homo sapiens, MONO-MAC-6): 1200 nM

Structure (SMILES): CCCc1ccc(C2=CCN(S(=O)(=O)N3CCCC[C@@H]3C(=O)NO)CC2)cc1
- IC50 ([1]; Homo sapiens, MONO-MAC-6): 2600 nM

Structure (SMILES): O=C(NO)[C@H]1CCCCN1S(=O)(=O)N1CC=C(c2ccc(Cl)cc2)CC1 (stereo in doubt; 6)
- IC50 ([1]; mono-mac-6): 480 nM

Structure (SMILES): CNC(=O)N1CCN(S(=O)(=O)N2CC=C(c3ccc(F)cc3)CC2)[C@@H](C(=O)NO)C1
- IC50 ([1]; Homo sapiens, MONO-MAC-6): 120 nM
- AUC [2]: 1790 ng·h/mL

Structure (SMILES): C[C@@H](NS(=O)(=O)N1CCC(c2ccc(Cl)cc2)CC1)C(=O)NO
- IC50 ([1]; Homo sapiens, MONO-MAC-6): 5800 nM

Structure (SMILES): O=C(NO)[C@H]1CCCCN1S(=O)(=O)N1CC=C(c2ccc(Br)cc2)CC1
- IC50 ([1]; Homo sapiens, MONO-MAC-6): 1200 nM

Structure (SMILES): O=C(NO)[C@H]1CCCCN1S(=O)(=O)N1CC=C(c2ccc(F)cc2)CC1
- Cmax [3]: 3060 ng/mL
- IC50 ([1]; Homo sapiens, MONO-MAC-6): 300 nM
- Cmax [4]: 117 ng/mL

Structure (SMILES): C[C@@H](NS(=O)(=O)N1CC=C(c2ccc(Cl)cc2)CC1)C(=O)NO
- IC50 ([1]; Homo sapiens, MONO-MAC-6): 1240 nM

Structure (SMILES): CCc1cccc(C2=CCN(S(=O)(=O)N3CCCC[C@@H]3C(=O)NO)CC2)c1
- IC50 ([1]; Homo sapiens, MONO-MAC-6): 320 nM

Structure (SMILES): O=C(NO)[C@H]1CNCCN1S(=O)(=O)N1CC=C(c2ccc(F)cc2)CC1
- AUC [5]: Not Active
- IC50 ([1]; Homo sapiens, MONO-MAC-6): 3560 nM

Structure (SMILES): CN(C)P(=O)(N(C)C)N1CCN(S(=O)(=O)N2CC=C(c3ccc(F)cc3)CC2)[C@@H](C(=O)NO)C1
- IC50 ([1]; Homo sapiens, MONO-MAC-6): 510 nM
- AUC [2]: 1540 ng·h/mL

Structure (SMILES): COc1ccc(C2=CCN(S(=O)(=O)N3CCCC[C@@H]3C(=O)NO)CC2)cc1
- IC50 ([1]; Homo sapiens, MONO-MAC-6): 15000 nM

Structure (SMILES): O=C(NO)[C@H]1CCCCN1S(=O)(=O)N1CC=C(c2cccc(-c3ccccc3)c2)CC1
- IC50 ([1]; Homo sapiens, MONO-MAC-6): 7600 nM

Structure (SMILES): CN(C)S(=O)(=O)N1CCN(S(=O)(=O)N2CC=C(c3ccc(F)cc3)CC2)[C@@H](C(=O)NO)C1
- IC50 ([1]; Homo sapiens, MONO-MAC-6): 250 nM
- AUC [2]: 3270 ng·h/mL

Structure (SMILES): O=C(NO)[C@H]1CCCCN1S(=O)(=O)N1CC=C(c2ccc(Cl)cc2)CC1 (stereo in doubt; 3)
- IC50 ([1]; Homo sapiens, MONO-MAC-6): 430 nM

Structure (SMILES): CN(C)C(=O)N1CCN(S(=O)(=O)N2CC=C(c3ccc(F)cc3)CC2)[C@@H](C(=O)NO)C1
- Max score [6]: 4.5
- Max score [7]: 2.9
- Positive paws [8]: 27%
- Severity [9]: 1
- Severity [10]: 2.8
- Positive paws [11]: 30%
- inhibition in vivo at 5 mg/kg [12]: 69%
- Positive paws [13]: 41%
- Severity [14]: 2.7
- inhibition in vivo at 45 mg/kg [15]: 56%
- Max score [16]: 2.7
- concentration at 7 h [17]: 233 ng/mL
- Positive paws [18]: 33%
- Max score [19]: 3.8
- Positive paws [20]: 4%
- Severity [21]: 2.4
- inhibition in vivo at 15 mg/kg [22]: 49%
- Cmax [3]: 1050 ng/mL
- Severity [23]: 2.9
- IC50 ([1]; Homo sapiens, MONO-MAC-6): 200 nM
- Max score [24]: 0.3
- AUC [2]: 6180 ng·h/mL
- Cmax [4]: 182 ng/mL
- concentration at 2 h [25]: 110 ng/mL
- inhibition in vivo at 2 mg/kg [26]: 67%
- inhibition in vivo at 120 mg/kg [27]: 96%

Structure (SMILES): O=C(NO)[C@H]1CCCCN1S(=O)(=O)N1CC=C(c2ccc(Oc3ccccc3)cc2)CC1
- IC50 ([1]; Homo sapiens, MONO-MAC-6): 3300 nM

Structure (SMILES): O=C(NO)[C@H]1CN(C(=O)N2CCOCC2)CCN1S(=O)(=O)N1CC=C(c2ccc(F)cc2)CC1
- IC50 ([1]; Homo sapiens, MONO-MAC-6): 350 nM
- AUC [2]: 7940 ng·h/mL

Structure (SMILES): O=C(NO)[C@H]1CCCCN1S(=O)(=O)N1CC=C(c2ccc(-c3ccccc3)cc2)CC1
- IC50 ([1]; Homo sapiens, MONO-MAC-6): 19000 nM

Structure (SMILES): O=C(NO)[C@H]1CCCCN1S(=O)(=O)N1CC=C(c2ccccc2)CC1
- IC50 ([1]; Homo sapiens, MONO-MAC-6): 240 nM
